Measured values as given in ChEMBL document CHEMBL3352341, “Design, synthesis and biological characterization of thiazolidin-4-one derivatives as promising inhibitors of Toxoplasma gondii” (Eur J Med Chem, 2014).
The source made the active and inactive calls. No rule for the calls is given here.

Key:
[1] = Therapeutic index, ratio of TD50 for human foreskin fibroblasts to IC50 for Toxoplasma gondii infected in human foreskin fibroblasts; conditions: read-out: TI
[2] = system: Toxoplasma gondii; assay: Antiparasitic activity against Toxoplasma gondii infected in human foreskin fibroblasts assessed as inhibition of replication measured as decrease in the number of tachyzoites in vacuole at 10 uM after 24 hrs by fluorescence assay; type: functional, organism-based
[3] = system: Toxoplasma gondii; assay: Antiparasitic activity against Toxoplasma gondii infected in human foreskin fibroblasts assessed as tachyzoite growth inhibition after 5 days by colorimetric assay; type: functional, organism-based; conditions: 120 h
[4] = Cytotoxicity against human foreskin fibroblasts after 5 days by colorimetric assay; type: cell-based; conditions: human foreskin fibroblasts (HFF cells), read-out: TD50

SMILES | selectivity ratio [1] | inhibition [2] | IC50 [3] | IC90 [3] | CC50 at 120 h [4]
C=CCC/C(C)=N\N=C1/NC(=O)CS1 | 3 | Active | 195 µM | 2220 µM | ≥ 320 µM
O=C1CS/C(=N/N=C\c2c[nH]c3ccccc23)N1 | 3 | Active | 166 µM | 474 µM | ≥ 320 µM
CC1CCC(=N/N=C2\NC(=O)CS2)CC1 (configuration not stated) | 2 | Active | 226 µM | 777 µM | ≥ 320 µM
CC1CCC(=N/N=C2/SCC(=O)N2Cc2ccccc2)CC1 (configuration not stated) | 3 | Active | 88 µM | 242 µM | 286 µM
C/C(=N/N=C1\NC(=O)CS1)c1ccccn1 | 6 | Active | 2.9 µM | 7 µM | 16 µM
C/C(=N/N=C1\NC(=O)CS1)c1cccs1 | 9 | Active | 64 µM | 387 µM | ≥ 320 µM
C/C(=N/N=C1\NC(=O)CS1)c1cccnc1 | 8 | Active | 74 µM | 406 µM | ≥ 320 µM
C/C(=N/N=C1/SCC(=O)N1Cc1ccccc1)c1ccccn1 |  | Active | ≥ 320 µM |  | ≥ 320 µM
O=C1CS/C(=N/N=C2CCCCCCC2)N1Cc1ccccc1 | 5 | Active | 43 µM | 508 µM | 205 µM
C=CCC/C(C)=N\N=C1\SCC(=O)N1Cc1ccccc1 | 3 | Active | 207 µM | 885 µM | ≥ 320 µM
O=C1CS/C(=N/N=C2CCCCC2)N1Cc1ccccc1 | 2 | Active | 255 µM | 662 µM | ≥ 320 µM
C/C(=N/N=C1/SCC(=O)N1Cc1ccccc1)c1ccco1 | 7 | Active | 76 µM | 212 µM | ≥ 320 µM
O=C1CS/C(=N/N=C\c2cccs2)N1 | 4 | Active | 135 µM | 2680 µM | ≥ 320 µM
O=C1CS/C(=N/N=C\c2cccnc2)N1Cc1ccccc1 | 2 | Active | 111 µM | 245 µM | 239 µM
CC(C)=N/N=C1/SCC(=O)N1Cc1ccccc1 | 2 | Active | 232 µM | 636 µM | ≥ 320 µM
CC1CCC/C(=N/N=C2/SCC(=O)N2Cc2ccccc2)C1 (configuration not stated) | 2 | Active | 58 µM | 248 µM | 95 µM
C/C(=N/N=C1/SCC(=O)N1Cc1ccccc1)c1ccc2ccccc2c1 | 5 | Active | 109 µM | 499 µM | ≥ 320 µM
CCCCCC/C(C)=N\N=C1\SCC(=O)N1Cc1ccccc1 | 6 | Active | 20 µM | 88 µM | 109 µM
CC(C)(C)C1CCCC/C1=N/N=C1/SCC(=O)N1Cc1ccccc1 (configuration not stated) | 6 | Active | 102 µM | 295 µM | ≥ 320 µM
CCC/C(C)=N\N=C1/NC(=O)CS1 | 2 | Active | 262 µM | 1060 µM | ≥ 320 µM
CC1CCCC/C1=N/N=C1\NC(=O)CS1 (configuration not stated) | 2 | Active | 247 µM | 785 µM | ≥ 320 µM
O=C1CS/C(=N/N=C\c2ccncc2)N1Cc1ccccc1 | 2 | Active | 118 µM | 304 µM | 203 µM
CC/C(C)=N\N=C1\SCC(=O)N1Cc1ccccc1 | 6 | Active | 99 µM | 392 µM | ≥ 320 µM
CC1CCC/C(=N/N=C2\NC(=O)CS2)C1 (configuration not stated) | 6 | Active | 36 µM | 310 µM | 202 µM
CC(C)=C/C(C)=N\N=C1/NC(=O)CS1 | 6 | Active | 97 µM | 316 µM | ≥ 320 µM
O=C1CS/C(=N/N=C\c2ccc3c(c2)OCO3)N1 |  | Active | ≥ 320 µM |  | ≥ 320 µM
O=C1CS/C(=N/N=C\c2ccco2)N1Cc1ccccc1 | 5 | Active | 111 µM | 396 µM | ≥ 320 µM

SMILES | selectivity ratio [1] | inhibition [2] | IC50 [3] | IC90 [3] | CC50 at 120 h [4]
CC(C)(C)C1CCCC/C1=N/N=C1\NC(=O)CS1 (configuration not stated) | 3 | Active | 218 µM | 693 µM | ≥ 320 µM
C/C(=N/N=C1/SCC(=O)N1Cc1ccccc1)C1CCCCC1 | 3 | Active | 24 µM | 71 µM | 60 µM
C/C(CC(C)C)=N/N=C1/SCC(=O)N1Cc1ccccc1 | 10 | Active | 23 µM | 188 µM | 220 µM
CC1CC/C(=N/N=C2/SCC(=O)N2Cc2ccccc2)C1 (configuration not stated) | 3 | Active | 184 µM | 845 µM | ≥ 320 µM
C/C(=N/N=C1\NC(=O)CS1)c1ccc2ccccc2c1 | 10 | Active | 56 µM | 175 µM | ≥ 320 µM
C/C(=N/N=C1/SCC(=O)N1Cc1ccccc1)c1cc2ccccc2oc1=O |  | Active | ≥ 320 µM |  | ≥ 320 µM
CCCCC/C(C)=N\N=C1\SCC(=O)N1Cc1ccccc1 | 5 | Active | 19 µM | 120 µM | 88 µM
CC(C)=C/C(C)=N\N=C1\SCC(=O)N1Cc1ccccc1 | 3 | Active | 23 µM | 186 µM | 67 µM
CCC(CC)=N/N=C1\NC(=O)CS1 | 4 | Active | 126 µM | 580 µM | ≥ 320 µM
C/C(=N/N=C1/SCC(=O)N1Cc1ccccc1)c1cccnc1 | 3 | Active | 82 µM | 181 µM | 147 µM
CCCC/C(CC)=N\N=C1/NC(=O)CS1 | 6 | Active | 89 µM | 288 µM | ≥ 320 µM
C/C(=N/N=C1/SCC(=O)N1Cc1ccccc1)c1ccccc1 | 9 | Active | 61 µM | 294 µM | ≥ 320 µM
CCC/C(C)=N\N=C1\SCC(=O)N1Cc1ccccc1 | 12 | Active | 47 µM | 214 µM | ≥ 320 µM
O=C1CS/C(=N/N=C\c2ccc3c(c2)OCO3)N1Cc1ccccc1 | 2 | Active | 290 µM | 2140 µM | ≥ 320 µM
CC1CCCC/C1=N/N=C1/SCC(=O)N1Cc1ccccc1 (configuration not stated) | 13 | Active | 43 µM | 171 µM | ≥ 320 µM
C/C(=N/N=C1\NC(=O)CS1)C1CCCCC1 | 10 | Active | 55 µM | 283 µM | ≥ 320 µM
O=C1CS/C(=N/N=C\c2cccs2)N1Cc1ccccc1 | < 1 | Active | 270 µM | 1660 µM | 54 µM
CCC(CC)=N/N=C1/SCC(=O)N1Cc1ccccc1 | 16 | Active | 36 µM | 243 µM | ≥ 320 µM
O=C1CSC(NN=C2CCCCCCC2)=N1 | 4 | Active | 79 µM | 290 µM | 309 µM
O=C1CS/C(=N/N=C2CCCCCC2)N1Cc1ccccc1 | 2 | Active | 255 µM | 1530 µM | ≥ 320 µM
CCCCC/C(C)=N\N=C1/NC(=O)CS1 | 3 | Active | 110 µM | 686 µM | 320 µM
O=C1CSC(NN=C2CCCCCC2)=N1 | 5 | Active | 111 µM | 387 µM | ≥ 320 µM
O=C1CS/C(=N/N=C2CCCC2)N1Cc1ccccc1 | 5 | Active | 105 µM | 330 µM | ≥ 320 µM
CC1CCC/C1=N/N=C1/SCC(=O)N1Cc1ccccc1 (configuration not stated) | 11 | Active | 53 µM | 329 µM | ≥ 320 µM
C/C(=N/N=C1\NC(=O)CS1)c1ccco1 |  | Active | ≥ 320 µM |  | ≥ 320 µM
CC/C(C)=N\N=C1/NC(=O)CS1 | 4 | Active | 133 µM | 1160 µM | ≥ 320 µM
